Each structure is given as a SMILES string.

In one test the test system is rat.
Experiment: not given
Conditions: rats; cited from earlier work.
`COc1ccc(Cc2nccc3cc(OC)c(OC)cc23)cc1OC` [papaverine]: the apomorphine induced stereotypes entry is “reduces”, the haloperidol induced catalepsy entry is reported as “increases” and the “rat brain dopamine levels” value is recorded as “reduces”.

The target in the next test is Human PDE10A1 (Homo sapiens, UniProt Q9Y233). In words: hPDE10A1 enzyme inhibition. Format: biochemical. Conditions: [3H]-cAMP substrate, 20 minutes at 37° C.; read-out: hPDE10A1 IC50 Band.
Human PDE10A1, sequence (Q9Y233 1-779 isoform Q9Y233-1): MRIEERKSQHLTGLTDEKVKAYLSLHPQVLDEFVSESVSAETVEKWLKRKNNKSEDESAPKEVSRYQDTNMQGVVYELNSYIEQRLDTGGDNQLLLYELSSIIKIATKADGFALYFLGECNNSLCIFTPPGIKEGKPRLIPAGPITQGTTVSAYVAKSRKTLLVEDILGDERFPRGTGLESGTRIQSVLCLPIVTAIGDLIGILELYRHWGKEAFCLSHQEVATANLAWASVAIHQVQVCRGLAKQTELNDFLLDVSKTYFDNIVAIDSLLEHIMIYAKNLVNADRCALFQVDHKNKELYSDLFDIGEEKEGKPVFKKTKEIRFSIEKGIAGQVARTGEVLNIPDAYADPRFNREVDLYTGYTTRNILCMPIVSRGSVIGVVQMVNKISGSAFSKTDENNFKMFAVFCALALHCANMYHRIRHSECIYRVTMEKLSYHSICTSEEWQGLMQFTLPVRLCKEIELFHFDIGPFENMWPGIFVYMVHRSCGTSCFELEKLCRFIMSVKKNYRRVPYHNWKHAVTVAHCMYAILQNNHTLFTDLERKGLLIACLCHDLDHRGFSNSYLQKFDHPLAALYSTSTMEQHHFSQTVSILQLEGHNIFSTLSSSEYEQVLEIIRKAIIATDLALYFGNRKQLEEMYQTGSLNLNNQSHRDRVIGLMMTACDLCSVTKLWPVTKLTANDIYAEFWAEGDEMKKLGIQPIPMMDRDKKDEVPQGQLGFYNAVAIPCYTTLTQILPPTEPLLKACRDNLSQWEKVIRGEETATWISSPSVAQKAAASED
Consider `COc1ccc(C2=C(c3ccc(OCc4ccc5ccccc5n4)cc3)C(=O)OC23CC3)cc1` [Example 126, 7-(4-methoxyphenyl)-6-(4-(quinolin-2-ylmethoxy)phenyl)-4-oxaspiro[2.4]hept-6-en-5-one], for which the IC50 – broadly, the concentration needed to halve the response being measured – is not above 50 nM.
`CCOc1ccc(C2=C(c3ccc(OCc4ccc5ccccc5n4)cc3)C(=O)C(C)(C)O2)cc1` [Example 157, 5-(4-ethoxyphenyl)-2,2-dimethyl-4-(4-(quinolin-2-ylmethoxy)phenyl)furan-3(2H)-one]: the IC50 was not above 50 nM.
Regarding `O=C1OC2(CC2)C(c2ccncc2)=C1c1ccc(OCc2ccc3ccccc3n2)cc1` [Example 26, 7-(Pyridin-4-yl)-6-(4-(quinolin-2-ylmethoxy)phenyl)-4-oxaspiro[2.4]hept-6-en-5-one], the IC50 is more than 50 nM.
On to `CC1(C)OC(c2ccc3ocnc3c2)=C(c2ccc(OCc3ccc4ccccc4n3)cc2)C1=O` [Example 821, 5-(benzo[d]oxazol-5-yl)-2,2-dimethyl-4-(4-(quinolin-2-ylmethoxy)phenyl)furan-3(2H)-one], for which the IC50 was not above 50 nM.
On the same count and under the same terms, the figure for `CC1(C)OC(c2ccccc2)=C(c2ccc(OCc3ccc4ccccc4n3)cc2)C1=O` [Example 811, 2,2-dimethyl-5-phenyl-4-(4-(quinolin-2-ylmethoxy)phenyl)furan-3(2H)-one] is not above 50 nM.
As for `CC1(C)OC(c2ccncc2)=C(c2ccc(OCc3ccc4ccccc4n3)cc2)C1=O` [Example 125, 2,2-dimethyl-5-(pyridin-4-yl)-4-(4-(quinolin-2-ylmethoxy)phenyl) furan-3(2H)-one], the IC50 was not above 50 nM.
On the same count and under the same terms, next, `CC1(C)OC(c2ccc(OC(F)F)c(C#N)c2)=C(c2ccc(OCc3ccc4ccccc4n3)cc2)C1=O` [Example 169, 2-(difluoromethoxy)-5-(5,5-dimethyl-4-oxo-3-(4-(quinolin-2-ylmethoxy)phenyl)-4,5-dihydrofuran-2-yl)benzonitrile]: not above 50 nM.
`COc1ccc(C2=C(c3ccc(OCc4ccc5ccccc5n4)cc3)C(=O)C(C)(C)O2)cn1` [Example 133, 5-(6-methoxypyridin-3-yl)-2,2-dimethyl-4-(4-(quinolin-2-ylmethoxy)phenyl)furan-3(2H)-one]: the IC50 is not above 50 nM.
On the same count and under the same terms, next, `CC1(C)OC(c2ccc(Cl)cc2)=C(c2ccc(OCc3ccc4ccccc4n3)cc2)C1=O` [Example 147, 5-(4-Chlorophenyl)-2,2-dimethyl-4-(4-(quinolin-2-ylmethoxy)phenyl) furan-3(2H)-one]: not above 50 nM; `COc1ccc(C2=C(c3ccc(OCc4ccc5ccccc5n4)cc3)C(=O)C(C)(C)O2)cc1F` [Example 134, 5-(3-fluoro-4-methoxyphenyl)-2,2-dimethyl-4-(4-(quinolin-2-ylmethoxy)phenyl)furan-3(2H)-one]: not above 50 nM.

The values are drawn from patent US8933074B2, “1,2-disubstituted heterocyclic compounds” (FORUM Pharmaceuticals Inc., priority 2008, dated 2015).
